{
  "source": "patent US20190307771A1",
  "about": "“METHODS AND COMPOSITIONS FOR THE TREATMENT OF CANCER AND METABOLIC DISEASES” (THE REGENTS OF THE UNIVERSITY OF CALIFORNIA, priority 2016, published 2019)",
  "key": {"[1]": {"tested_on": "Class I (HDAC1, 2, 3, and 8) and Class IIa (HDAC4, 5, 7, and 9)", "conditions": "cited from earlier work"}, "miR-22 [2]": {"tested_on": "miR-22", "assay": "miR-22 expression in HCT116 cells (qRT-PCR)", "assay_type": "cell-based", "conditions": "24 hours, RA 10 μM, butyrate 5 mM, propionate 10 mM, valerate 10 mM, SAHA 5 μM", "procedure": "To study the effect of RA and HDAC inhibitors on miR-22 expression, HCT116 cells were treated with RA, butyrate, propionate, valerate, and SAHA. The SCFA concentrations used were within physiologic ranges^35.\nTotal RNA was extracted with TRIzol Reagent (Invitrogen, Carlsbad, Calif.), and cDNA was generated using High Capacity RNA-to-cDNA Kit (Applied Biosystems, Carlsbad, Calif.). qRT-PCR was performed on ABI 7900HT Fast Real time PCR system using Power SYBR® Green PCR Master Mix (Applied Biosystems, Carlsbad, Calif.)."}, "[3]": {"tested_on": "HCT116 colon cancer cells", "assay": "MTT cell viability assay in HCT116 cells", "assay_type": "cell-based", "conditions": "48 hours, RA 10 μM, butyrate 5 mM, propionate 10 mM, valerate 10 mM, SAHA 5 μM, vs. DMSO", "procedure": "Cell viability was monitored by MTT assay.\nHCT116 cells (American Type Culture Collection) were maintained in McCoy's 5a medium from Gibco (Life Technologies, Carlsbad, Calif.) with 10% FBS. Cells were plated (1×10^6 cells per 60-mm dish, 2×10^5 cells per 6-well plates, and 1×10^5 cells per 24-well plates) overnight prior to treatment or transfection.\nCells were stained with 3-(4,5-dimethylthiazol-2-O-2,5-diphenyltetrazolium bromide (MTT, Sigma-Aldrich, St. Louis, Mo.) and measured at 570 nm with Microplate Reader (Biotek, Winooski, Vt.)."}, "miR-22 [4]": {"tested_on": "miR-22", "conditions": "published data; cited from earlier work"}, "[5]": {"tested_on": "CYCLIN A2, HDAC1, HDAC4, SIRT1", "assay": "Protein levels in Huh7 liver cancer cells", "conditions": "liver Huh7 cells treated with miR-22 mimic"}, "HCT116-generated tumors": {"tested_on": "HCT116-generated tumors", "assay": "Mouse xenograft tumor model", "assay_type": "in vivo, Athymic nude mice", "conditions": "adenoviral miR-22 intratumorally", "procedure": "Athymic nude mice (female, 6 weeks old, Jackson Laboratory) were subcutaneously injected by HCT116 cells (1×10^6) in the flank region. When tumor size reached […] of cross-sectional area, a combination of RA plus butyrate or adenoviral-expressing miR-22 (Ad-miR-22) was administered. For RA plus butyrate treatment, mice received RA (2.5 μg/g body weight) and butyrate (1.2 mg/g body weight) intraperitoneally (IP) 5 times a week for 2 weeks. For Ad-miR-22 treatment, mice received Ad-miR-22 (1×10^9 Pfu) intratumorally (IT) twice a week for 2 weeks. Control groups received 1% DMSO in PBS and adenovirus scramble, respectively. Tumor dimensions were measured and tumor volume was calculated using V (volume)=W (width)^2×L (length)/2. All experimental protocols were approved by the University of California Davis Animal Care and Use Committee."}, "[6]": {"tested_on": "HDAC1, HDAC4, SIRT1, cyclin A2 (CCNA2)", "assay": "Western blot of protein deacetylases and cyclin A2 in HCT116 cells", "assay_type": "cell-based", "conditions": "HCT116 cells, 48 hours after transfection, vs. scramble control", "procedure": "HCT116 cells were transfected with either an miR-22 mimic or a scramble control, and 48 hours later the protein levels of HDAC4, SIRT1, and cyclin A2 were measured (FIG. 3B). The expression of all three proteins was reduced by treatment with the miR-22 mimic.\n(§1) Western blot and immunoprecipitation were performed as described previously^22. Specific antibodies used included anti-NUR77, RARβ, SIRT1, β-actin, and IgG (Santa Cruz Biotechnology, Santa Cruz, Calif.), phospho-JNK1/2, total JNK1/2, cleaved caspase3, HDAC1 and HDAC4 (Cell Signaling Technology, Beverly, Mass.), and CCNA2 (Novus Biologicals, Littleton, Colo.). To detect protein acetylation of NUR77 and RARβ, cell lysates (500 μg) were incubated with anti-NUR77, RARβ, or IgG antibody (1 μg), precipitated by adding Dynabeads (30 μl, Life Technologies, Carlsbad, Calif.), and probed with anti-Acetyl-lysine antibody (Cell Signaling Technology, Beverly, Mass.). To study the interaction between RARβ and NUR77, whole-cell lysates were precipitated with anti-RARβ or NUR77 antibody followed by Western blot using anti-NUR77 or RARβ antibody."}, "NUR77 and RARβ": {"tested_on": "NUR77 and RARβ", "assay": "Immunoprecipitation/Western blot: protein acetylation of NUR77 and RARβ", "assay_type": "cell-based", "conditions": "HCT116 cells; IP with anti-NUR77 or anti-RARβ, anti-acetyl lysine blot", "excerpt": "FIG. 12A depicts the expression levels of proteins that were extracted from HCT116 cells and immunoprecipitated by anti-NUR77 and RARβ antibodies or IgG, followed by Western blot using an anti-acetyl lysine antibody. […] The mRNA levels of NUR77 target genes BRE as well as CCND2 and RARβ target genes RARβ and CYP26A1 in HCT116 cells are shown in FIG. 12C.\nNUR77 and RARβ acetylation status was also studied because protein acetylation alters nuclear receptor activity^37. […] To study the effect of RA/butyrate in modulating NUR77 and RARβ transcriptional activity, ChIP-qPCR and RT-PCR were performed to determine receptor binding to transcriptional regulatory regions and mRNA levels of downstream targets, respectively.\nas §1"}},
  "note": "“Also recorded” adds a separate entry of the source.",
  "data": [
    {"molecule": "CC(/C=C/C(=O)NO)=C\\[C@@H](C)C(=O)c1ccc(N(C)C)cc1", "note": "[trichostatin A]", "values": [
      {"measurement": "Inhibition of HDAC classes", "setting": "[1]", "result": "inhibit Class I (HDAC1, 2, 3, and 8) and Class IIa (HDAC4, 5, 7, and 9)"}
    ]},
    {"molecule": "CCCCC(=O)O", "note": "[valerate]", "values": [
      {"measurement": "miR-22 expression level", "setting": "miR-22 [2]", "result": "induced; also recorded: increased miR-22 level"},
      {"measurement": "Cell viability", "setting": "[3]", "result": "Markedly reduced cell viability"}
    ]},
    {"molecule": "C=C1CC[C@H](O)C/C1=C/C=C1\\CCC[C@]2(C)[C@@H]([C@H](C)CCCC(C)C)CC[C@@H]12", "note": "[vitamin D3]", "values": [
      {"measurement": "miR-22 induction", "setting": "miR-22 [4]", "result": "induce miR-22"}
    ]},
    {"molecule": "miR-22: microRNA, SEQ ID NO:1 AAGCUGCCAGUUGAAGAACUGU (listed as RNA, chemistry not fully specified)", "values": [
      {"measurement": "HDAC1, HDAC4, and SIRT1 levels", "setting": "[5]", "result": "inhibited multiple HDACs"},
      {"measurement": "HDACs and CCNA2 protein levels in tumors", "setting": "HCT116-generated tumors", "result": "silenced HDACs and CCNA2"},
      {"measurement": "NUR77 and RARβ protein levels in tumors", "setting": "HCT116-generated tumors", "result": "upregulating NUR77 and RARβ"},
      {"measurement": "Colon tumor growth / tumor size", "setting": "HCT116-generated tumors; xenograft mice", "result": "inhibited colon cancer growth; also recorded: effective in inhibiting the growth of colon cancer; also recorded: remarkable effectiveness"},
      {"measurement": "Protein levels of HDAC1, HDAC4, SIRT1, cyclin A2 after miR-22 (mimic) transfection", "setting": "[6]", "result": "inhibited multiple HDACs; also recorded: inhibits HDAC1, HDAC4 and SIRT1; also recorded: HDAC1 protein level was reduced; also recorded: reduced HDAC4 and SIRT1; also recorded: suppress HDAC4 and SIRT1 expression; also recorded: reduces protein deacetylases, including HDAC1"},
      {"measurement": "Acetylated NUR77 and RARβ", "setting": "NUR77 and RARβ", "result": "increased acetylated NUR77 and RARβ"}
    ]}
  ]
}
